From patent US20250333805A1, “HERICIUM ERINACEUS STRAIN HE015, MOLECULAR MARKERS AND USES THEREOF” (INFINITUS (CHINA) COMPANY LTD., priority 2024, published 2025)

Tested on: mice with chronic alcohol-induced gastric mucosal damage
Experiment: Chronic alcohol-induced gastric mucosal damage mice model (60% ethanol intragastrically): body weight, survival, HE staining of gastric tissue
Assay type: in vivo, Male KM mice
Conditions: for body weight of the mice at the end of the experiment, compared with Model: extracts 10 mg/mL, Lansoprazole 0.35 mg/mL, 0.3 mL intragastrically once daily for 2 weeks, 60% ethanol in second week, P<0.05 where significant
Method: Male KM mice, SPF grade, body weight of 18-22 g, 5-6 weeks of age, feeding temperature and humidity: 23±1° C. and 55±10%; 12 h day-and-night discontinuous illumination was used; conditions of the raising room were always kept stable, thereby ensuring the reliability of the test result. The mice took food and drank water freely.
Male KM mice were adaptively raised for 7 d, and then randomly divided into the following 8 groups: • Blank control group 1: Control • Model control group 1: Model • Administration group 1: Positive • Administration group 2: HEF • Administration group 3: HEFP • Administration group 4: HEFX • Administration group 5: HESP • Administration group 6: HESX.
There were 14 mice in the Model group, and 13 mice in the other groups, and the mice were fed with an ordinary fodder.
Experimental duration is 2 weeks:
First week: the mice in each administration group were prophylactically administered intragastrically once every day; and its administration concentration is shown in Table 9; meanwhile, the mice in the Control and Model groups were administered 0.3 mL of pure water intragastrically.
Second week: the mice in the Model and each administration groups were administered 0.3 mL of 60% ethanol intragastrically once per day for modeling, to induce a chronic alcohol-induced gastric mucosal damage mice model, and modeling was performed for a week; meanwhile, the mice in the administration groups were administered (administration concentration and dosage were the same as those in the first week), the protective effects of different administration groups on gastric mucosa were observed.
Administration was stopped the night before the end of the experiment; the mice were not allowed to take food, but allowed to drink water. Eyeballs were picked out and blood was collected, and then the mice were killed by cervical dislocation; gastric tissues were taken and placed into 4% paraformaldehyde stationary solution for immobilization, for use in pathological examination.

Question: How did the “body weight of the mice at the end of the experiment, compared with Model” value (FIG. 5A) turn out when `Cc1c(OCC(F)(F)F)ccnc1C[S+]([O-])c1nc2ccccc2[nH]1` (stereo not drawn) [Positive, Lansoprazole] was run?
Answer: The value was “significantly greater than that in the Model”.

Question: And the “body weight of the mice at the end of the experiment, compared with Model” value (FIG. 5A, listed as Lansoprazole)?
Answer: The value was “may increase the body weight”.

Question: And the “death count of the mice at the end of the experiment” value (same regimen, compared with other groups, FIG. 5B)?
Answer: Its value is “obviously higher than that in other groups”.

Question: What about the “HE staining of mice gastric tissues (gastric mucosa morphology)” value (same regimen, gastric tissue at end of experiment, FIG. 6) of the same compound?
Answer: The value was “necrosis exfoliation of partial mucosal epithelial cells of the gastric tissue, loose arrangement of partial cells and infiltration of a small amount of inflammatory cells”.

Question: And the “survival rate of the mice at the end of the experiment, compared with Model” value (same regimen, survival curve FIG. 5B)?
Answer: Its value is “slightly higher than that of the Model group”.

Question: What about the “body weight of the mice during modeling, compared with Control” value (second week, 60% ethanol modeling, P<0.01, FIG. 5A) of the same compound?
Answer: The value was “lower than that in the Control”.
